Data as given in ChEMBL document CHEMBL1201862, “PubChem BioAssay data set” (2004).
Calls of active or inactive are those of the source.

Tests used:
[1] = biological target: Dual specificity protein kinase CLK1 (Homo sapiens, UniProt P49759); assay: CLK1 kinase inhibitors, off-target check, dose response, selectivity assay for Dyrk1A inhibitor project, biochemical, cherry-picked samples (AID 588811)
[2] = biological target: Dual specificity tyrosine-phosphorylation-regulated kinase 1A (Rattus norvegicus, UniProt Q63470); assay type: biochemical, Homo sapiens
Cytochrome P450 1A2 = biological target: T1, Cytochrome P450 1A2 (Homo sapiens, UniProt P05177);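 also: PubChem cytochrome P450 panel assay, CYP1A2 panel member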
T1 sequence (P05177 whole entry): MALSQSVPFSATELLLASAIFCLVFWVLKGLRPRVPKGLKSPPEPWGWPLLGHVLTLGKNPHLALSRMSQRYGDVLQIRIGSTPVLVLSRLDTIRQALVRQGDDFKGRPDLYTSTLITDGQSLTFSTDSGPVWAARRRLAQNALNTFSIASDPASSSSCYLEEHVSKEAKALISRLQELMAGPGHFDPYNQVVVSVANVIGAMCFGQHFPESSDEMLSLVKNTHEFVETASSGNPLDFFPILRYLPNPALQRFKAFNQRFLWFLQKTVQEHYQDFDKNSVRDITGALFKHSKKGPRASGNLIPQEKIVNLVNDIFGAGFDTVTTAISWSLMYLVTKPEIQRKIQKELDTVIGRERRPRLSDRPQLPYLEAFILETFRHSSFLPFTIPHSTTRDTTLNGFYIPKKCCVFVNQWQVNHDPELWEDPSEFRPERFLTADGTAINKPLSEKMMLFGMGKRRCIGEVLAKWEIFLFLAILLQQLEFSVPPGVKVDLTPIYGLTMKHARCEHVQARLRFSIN

Jurkat = assay: antigen receptor-induced NF-kB inhibitors, dose response, Jurkat, luciferase reporter, luminescence, B- and T-cell (AID 489004); assay type: functional, cell-based; conditions: Homo sapiens;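 also: NF-kB luciferase reporter Jurkat cells stimulated with PMA plus ionomycin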
[3] = cytotoxicity in HEK-293T NF-kB-Luc cells, dose response, cytotoxicity control for B/T-cell NF-kB inhibitor project, cell-based, uHTS hits (AID 489019); assay type: functional;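 also: IC50 reflects cytotoxicity as loss of cell viability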
INS1 = assay: beta cell apoptosis inhibitors, cytokine rescue, dose response, luminescence, retest (AID 449756); assay type: functional, cell-based; conditions: Rattus norvegicus;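 also: cell death triggered by IL-1 beta plus TNF-alpha plus IFN-gamma mixture; protective hits raise ATP signal compared with cytokine alone wells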
[4] = Shn3 3'UTR reporter inhibitors, dose response, cell-based, Clone20 osteoblasts, firefly luciferase, cherry-picked (AID 624132); assay type: functional;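 also: firefly luciferase luminescence from reporter carrying the Shn3 3'UTR in osteoblasts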
[5] = HepG2 cell cytotoxicity, dose response, cytotoxicity control for Shn3 inhibitor project, CellTiter-Glo, cherry-picked (AID 624134); assay type: functional, cell-based
[6] = control 3'UTR Renilla luciferase suppression, dose response, counter-screen for Shn3 inhibitor project, cell-based, Clone20-Shn3RL, cherry-picked (AID 624133); assay type: functional
Galanin receptor type 3 = biological target: T2, Galanin receptor type 3 (Homo sapiens, UniProt O60755); assay: Fluorescence-based cell-based primary high throughput dose response assay to identify antagonists of the Galanin Receptor 3 (GalR3).; assay type: functional
T2 sequence (O60755 whole entry): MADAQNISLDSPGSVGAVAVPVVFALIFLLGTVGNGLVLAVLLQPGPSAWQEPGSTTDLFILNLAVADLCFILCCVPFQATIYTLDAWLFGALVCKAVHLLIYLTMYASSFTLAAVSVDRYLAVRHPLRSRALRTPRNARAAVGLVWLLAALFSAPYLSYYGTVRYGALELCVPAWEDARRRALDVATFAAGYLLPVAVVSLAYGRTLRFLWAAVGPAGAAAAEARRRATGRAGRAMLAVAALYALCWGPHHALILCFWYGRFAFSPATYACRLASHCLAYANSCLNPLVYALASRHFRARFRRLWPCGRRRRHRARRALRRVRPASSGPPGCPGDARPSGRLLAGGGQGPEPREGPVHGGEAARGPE

cells = assay type: functional, cell-based; conditions: HEK-CNG
[7] = biological target: T3, COUP transcription factor 2 (Homo sapiens, UniProt P24468); assay: Luminescence-based cell-based high throughput dose response assay to identify inhibitors of COUP-TFII (NR2F2).; assay type: functional;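 also: HEK293 cells transiently cotransfected with COUP-TFII expression vector and reporter; luciferase reporter luminescence driven by COUP-TFII from the pX2-168 reporter plasmid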
T3 sequence (P24468 whole entry): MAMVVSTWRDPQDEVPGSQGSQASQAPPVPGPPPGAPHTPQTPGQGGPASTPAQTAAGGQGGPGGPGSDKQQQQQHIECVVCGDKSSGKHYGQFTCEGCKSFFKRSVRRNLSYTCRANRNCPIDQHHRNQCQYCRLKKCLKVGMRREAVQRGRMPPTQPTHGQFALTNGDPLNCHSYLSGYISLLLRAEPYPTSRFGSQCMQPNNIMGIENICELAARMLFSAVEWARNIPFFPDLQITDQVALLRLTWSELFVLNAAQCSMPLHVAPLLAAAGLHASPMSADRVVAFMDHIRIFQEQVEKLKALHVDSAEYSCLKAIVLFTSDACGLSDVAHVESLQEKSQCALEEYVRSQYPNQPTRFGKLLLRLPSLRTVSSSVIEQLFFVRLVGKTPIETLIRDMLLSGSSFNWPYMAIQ

[8] = biological target: Peroxisome proliferator-activated receptor gamma/Nuclear receptor coactivator 1 (Homo sapiens, UniProt P37231); assay: (§1) TR-FRET dose response biochemical High Throughput Screening assay for agonists of the steroid receptor coactivator 1 (SRC-1) recruitment by the peroxisome proliferator-activated receptor gamma (PPAR gamma): non-selective agonists. [Related pubchem assays (depositor defined):AID1300, AID1808, AID504735, AID631]; assay type: protein assay
[9] = biological target: Peroxisome proliferator-activated receptor gamma/Nuclear receptor coactivator 3 (Homo sapiens, UniProt P37231); assay: as §1, with “3 (SRC-3)” for “1 (SRC-1)”, “assays: 1301 (Confirmation screen.), 1048 (Primary screen.)]” for “assays (depositor defined):AID1300, AID1808, AID504735, AID631]”; assay type: functional
Sequence of Peroxisome proliferator-activated receptor gamma/Nuclear receptor coactivator 3 (P37231 whole entry): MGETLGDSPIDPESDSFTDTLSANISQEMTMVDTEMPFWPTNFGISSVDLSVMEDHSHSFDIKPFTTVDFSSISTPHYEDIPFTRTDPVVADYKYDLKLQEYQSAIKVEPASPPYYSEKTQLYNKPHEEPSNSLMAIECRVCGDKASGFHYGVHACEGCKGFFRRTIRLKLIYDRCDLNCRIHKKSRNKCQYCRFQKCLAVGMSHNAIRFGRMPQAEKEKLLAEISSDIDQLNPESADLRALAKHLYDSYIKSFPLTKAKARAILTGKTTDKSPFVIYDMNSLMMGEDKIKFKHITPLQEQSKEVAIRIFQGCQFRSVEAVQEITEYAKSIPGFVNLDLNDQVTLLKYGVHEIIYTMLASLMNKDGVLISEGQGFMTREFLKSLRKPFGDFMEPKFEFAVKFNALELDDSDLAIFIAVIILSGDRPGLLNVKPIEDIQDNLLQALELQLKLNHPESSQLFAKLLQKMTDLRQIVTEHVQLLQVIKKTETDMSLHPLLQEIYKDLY
Sequence of Peroxisome proliferator-activated receptor gamma/Nuclear receptor coactivator 3 (Q9Y6Q9 whole entry, further chain): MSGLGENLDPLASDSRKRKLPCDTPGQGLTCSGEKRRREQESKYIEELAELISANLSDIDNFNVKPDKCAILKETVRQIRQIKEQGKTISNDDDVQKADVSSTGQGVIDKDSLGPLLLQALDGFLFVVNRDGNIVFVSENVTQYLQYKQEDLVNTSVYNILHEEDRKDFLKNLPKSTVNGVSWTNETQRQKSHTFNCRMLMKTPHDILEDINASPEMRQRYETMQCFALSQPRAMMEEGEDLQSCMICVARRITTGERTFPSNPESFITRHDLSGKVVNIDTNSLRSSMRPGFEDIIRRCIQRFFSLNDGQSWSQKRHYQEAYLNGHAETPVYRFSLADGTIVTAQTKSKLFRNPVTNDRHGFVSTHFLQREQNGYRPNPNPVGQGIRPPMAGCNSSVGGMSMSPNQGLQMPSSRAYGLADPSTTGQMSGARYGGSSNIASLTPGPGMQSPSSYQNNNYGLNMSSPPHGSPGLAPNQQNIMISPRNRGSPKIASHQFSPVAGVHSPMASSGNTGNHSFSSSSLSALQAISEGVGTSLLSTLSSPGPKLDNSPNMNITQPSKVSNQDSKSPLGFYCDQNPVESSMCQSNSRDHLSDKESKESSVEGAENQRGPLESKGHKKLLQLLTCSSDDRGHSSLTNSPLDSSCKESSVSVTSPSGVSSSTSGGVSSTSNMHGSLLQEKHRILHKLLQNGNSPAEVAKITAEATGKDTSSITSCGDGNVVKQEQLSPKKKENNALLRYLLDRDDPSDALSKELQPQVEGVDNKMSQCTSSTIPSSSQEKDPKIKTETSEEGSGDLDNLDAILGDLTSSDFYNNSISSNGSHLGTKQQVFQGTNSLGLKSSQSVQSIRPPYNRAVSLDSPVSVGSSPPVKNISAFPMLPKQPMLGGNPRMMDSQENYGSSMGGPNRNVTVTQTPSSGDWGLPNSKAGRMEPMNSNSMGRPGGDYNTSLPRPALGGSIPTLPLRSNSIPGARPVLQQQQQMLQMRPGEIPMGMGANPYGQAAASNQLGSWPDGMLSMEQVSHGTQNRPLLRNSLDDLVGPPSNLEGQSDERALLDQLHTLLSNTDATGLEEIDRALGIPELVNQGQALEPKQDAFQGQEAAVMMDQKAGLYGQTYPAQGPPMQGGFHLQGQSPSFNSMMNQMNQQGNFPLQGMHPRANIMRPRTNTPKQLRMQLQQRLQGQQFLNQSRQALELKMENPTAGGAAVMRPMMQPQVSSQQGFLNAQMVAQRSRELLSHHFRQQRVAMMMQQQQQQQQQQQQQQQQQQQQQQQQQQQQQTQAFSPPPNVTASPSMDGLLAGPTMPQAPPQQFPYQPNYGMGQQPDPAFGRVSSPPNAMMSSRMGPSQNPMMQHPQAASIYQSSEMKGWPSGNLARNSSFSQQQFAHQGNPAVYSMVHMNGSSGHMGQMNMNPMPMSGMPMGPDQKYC

[10] = biological target: Peroxisome proliferator-activated receptor gamma/Nuclear receptor coactivator 2 (Homo sapiens, UniProt P37231); assay: TR-FRET dose response biochemical High Throughput Screening assay for agonists of the steroid receptor coactivator 2 (SRC-2) recruitment by the peroxisome proliferator-activated receptor gamma (PPAR gamma): non-selective agonists. [Related pubchem assays: 1297, 1032 ]; assay type: functional
[11] = biological target: T4, Ubiquitin-conjugating enzyme E2 N (Homo sapiens, UniProt P61088); assay type: functional;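 also: Dose-response confirmation in a TR-FRET assay detecting UBC13-driven polyubiquitin chain formation, inhibition measured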
T4 sequence (P61088 whole entry): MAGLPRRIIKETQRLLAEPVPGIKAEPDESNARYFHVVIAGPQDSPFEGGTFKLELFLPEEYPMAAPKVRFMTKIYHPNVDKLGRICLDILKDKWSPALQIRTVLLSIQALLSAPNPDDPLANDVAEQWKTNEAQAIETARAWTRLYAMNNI

Mu-type opioid receptor = Mu-type opioid receptor (Homo sapiens, UniProt P35372); assay type: functional, cell-based;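 also: U2OS cells with beta-arrestin recruitment to OPRM1 by beta-gal complementation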
Sequence of Mu-type opioid receptor (P35372 whole entry): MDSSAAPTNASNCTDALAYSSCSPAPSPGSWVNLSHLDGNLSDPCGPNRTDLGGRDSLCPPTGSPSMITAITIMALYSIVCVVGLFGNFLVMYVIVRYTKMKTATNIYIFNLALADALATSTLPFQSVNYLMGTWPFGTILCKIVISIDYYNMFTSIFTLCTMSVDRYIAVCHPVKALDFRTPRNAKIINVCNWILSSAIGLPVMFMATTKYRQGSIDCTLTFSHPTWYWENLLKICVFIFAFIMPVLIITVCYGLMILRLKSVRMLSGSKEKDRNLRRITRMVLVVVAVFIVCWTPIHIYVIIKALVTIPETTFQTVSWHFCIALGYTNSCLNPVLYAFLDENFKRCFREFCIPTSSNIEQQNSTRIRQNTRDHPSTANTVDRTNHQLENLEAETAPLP

[12] = biological target: 5-hydroxytryptamine receptor 2A (Mus musculus, UniProt P35363); assay type: functional, cell-based;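 also: CHO-K1 cells with tagged receptor and beta-arrestin; agonist potency measured as compound-induced activation of the receptor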
Sequence of 5-hydroxytryptamine receptor 2A (P35363 whole entry): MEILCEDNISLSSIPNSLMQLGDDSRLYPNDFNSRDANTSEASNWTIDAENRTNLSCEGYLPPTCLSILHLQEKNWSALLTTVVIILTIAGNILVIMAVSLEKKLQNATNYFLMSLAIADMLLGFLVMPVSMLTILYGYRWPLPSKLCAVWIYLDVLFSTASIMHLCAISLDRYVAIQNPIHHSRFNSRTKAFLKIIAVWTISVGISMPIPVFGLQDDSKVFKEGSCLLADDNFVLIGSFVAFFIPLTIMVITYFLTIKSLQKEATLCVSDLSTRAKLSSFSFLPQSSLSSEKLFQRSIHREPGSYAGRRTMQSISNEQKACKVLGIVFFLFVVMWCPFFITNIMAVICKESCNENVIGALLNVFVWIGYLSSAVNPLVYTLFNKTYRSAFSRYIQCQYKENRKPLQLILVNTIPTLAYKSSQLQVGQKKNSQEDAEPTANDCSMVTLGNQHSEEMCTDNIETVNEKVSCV

BJ [13] = assay: cytotoxicity toward BJ-TERT fibroblasts, dose response, cell-based, RAS-independent, luminescence (AID 1933); assay type: functional; conditions: Homo sapiens
BJ [14] = assay: cells; assay type: functional, cell-based; conditions: Homo sapiens
BJ [15] = assay: cytotoxicity toward BJ-TERT-LT-ST fibroblasts, dose response, cell-based, RAS-independent, luminescence (AID 1935); assay type: functional; conditions: Homo sapiens;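 also: BJ fibroblasts immortalized with TERT plus LT and ST oncogenes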
[16] = cytotoxicity toward DRD oncogenic fibroblasts, dose response, cell-based, non-viral oncogenic, luminescence (AID 1934); assay type: functional; conditions: Homo sapiens
BJ [17] = assay: cytotoxicity toward Ras-transformed BJeLR fibroblasts, dose response, cell-based, alamar blue fluorescence, cherrypicked samples (AID 2631); assay type: functional; conditions: Homo sapiens;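 also: confirmatory dose-response assay in RAS-dependent BJ fibroblasts engineered with TERT, LT and ST, with cytotoxicity read by fluorescence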
[18] = biological target: Beta-2 adrenergic receptor (Homo sapiens, UniProt P07550); assay: beta2AR agonists driving receptor internalization, dose response, cell-based, FAP fluorogen, flow cytometry, cherry pick 1 (AID 588763); assay type: functional
Sequence of Beta-2 adrenergic receptor (P07550 whole entry): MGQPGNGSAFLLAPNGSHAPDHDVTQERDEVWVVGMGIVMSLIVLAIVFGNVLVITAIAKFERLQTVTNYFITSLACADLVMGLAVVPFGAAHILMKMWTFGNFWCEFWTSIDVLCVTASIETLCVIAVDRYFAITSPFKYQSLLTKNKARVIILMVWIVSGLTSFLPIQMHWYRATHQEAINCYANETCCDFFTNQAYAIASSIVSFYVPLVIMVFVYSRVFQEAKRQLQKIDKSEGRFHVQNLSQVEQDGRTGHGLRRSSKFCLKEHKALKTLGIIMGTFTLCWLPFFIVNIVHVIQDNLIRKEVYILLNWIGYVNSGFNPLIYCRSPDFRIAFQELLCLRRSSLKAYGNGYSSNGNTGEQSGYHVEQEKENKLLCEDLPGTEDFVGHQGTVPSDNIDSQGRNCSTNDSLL

[19] = biological target: T5, Mannose-6-phosphate isomerase (Homo sapiens, UniProt P34949); assay: PMI enzyme inhibitors, confirmation, biochemical, fluorescence intensity (AID 1535)
T5 sequence (P34949 whole entry): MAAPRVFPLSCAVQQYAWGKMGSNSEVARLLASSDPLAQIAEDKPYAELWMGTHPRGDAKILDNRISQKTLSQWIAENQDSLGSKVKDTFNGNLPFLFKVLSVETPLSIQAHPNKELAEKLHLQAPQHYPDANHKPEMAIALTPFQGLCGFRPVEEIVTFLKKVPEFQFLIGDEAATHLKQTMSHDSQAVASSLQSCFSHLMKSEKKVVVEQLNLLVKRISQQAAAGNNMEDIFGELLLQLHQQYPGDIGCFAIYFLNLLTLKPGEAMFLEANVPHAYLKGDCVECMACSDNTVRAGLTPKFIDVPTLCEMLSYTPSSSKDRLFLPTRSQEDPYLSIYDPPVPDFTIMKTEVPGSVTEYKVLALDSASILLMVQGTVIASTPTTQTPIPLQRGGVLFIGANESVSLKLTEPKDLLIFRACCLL

Phosphomannomutase 2 = Phosphomannomutase 2 (Homo sapiens, UniProt O15305); assay: Counter screen SAR assay for PMM2 inhibitors via a fluorescence intensity assay. [Related pubchem assays (depositor defined):AID1545, AID1574]
Sequence of Phosphomannomutase 2 (O15305 whole entry): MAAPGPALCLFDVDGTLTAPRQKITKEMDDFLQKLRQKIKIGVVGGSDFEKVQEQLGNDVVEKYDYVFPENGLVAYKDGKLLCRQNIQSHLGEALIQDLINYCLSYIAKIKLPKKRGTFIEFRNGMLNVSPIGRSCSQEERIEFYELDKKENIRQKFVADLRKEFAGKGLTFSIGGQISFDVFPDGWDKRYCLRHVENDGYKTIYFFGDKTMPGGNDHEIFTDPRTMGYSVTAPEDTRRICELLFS

Coagulation factor XII = biological target: T6, Coagulation factor XII (Homo sapiens, UniProt P00748); assay type: functional;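 also: activated factor XIIa alpha cleaving a fluorogenic AMC peptide substrate; inhibitor potency from loss of enzyme activity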
T6 sequence (P00748 whole entry): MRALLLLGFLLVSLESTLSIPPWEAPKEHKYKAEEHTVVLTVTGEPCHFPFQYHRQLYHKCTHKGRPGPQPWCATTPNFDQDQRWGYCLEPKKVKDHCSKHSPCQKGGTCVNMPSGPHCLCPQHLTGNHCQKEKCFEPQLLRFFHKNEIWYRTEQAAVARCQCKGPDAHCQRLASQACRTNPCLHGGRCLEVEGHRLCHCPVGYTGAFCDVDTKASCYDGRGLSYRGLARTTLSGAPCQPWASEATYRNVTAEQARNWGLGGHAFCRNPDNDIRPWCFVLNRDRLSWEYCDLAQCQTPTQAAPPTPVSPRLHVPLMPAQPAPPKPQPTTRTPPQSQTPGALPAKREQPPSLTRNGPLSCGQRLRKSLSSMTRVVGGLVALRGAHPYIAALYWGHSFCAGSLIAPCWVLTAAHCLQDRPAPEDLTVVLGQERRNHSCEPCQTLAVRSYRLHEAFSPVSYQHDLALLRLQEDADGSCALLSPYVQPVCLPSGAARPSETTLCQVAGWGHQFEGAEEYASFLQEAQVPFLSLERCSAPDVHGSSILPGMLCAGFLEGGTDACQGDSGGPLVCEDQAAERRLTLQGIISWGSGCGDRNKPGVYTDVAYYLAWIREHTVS

Cytochrome P450 2C19 = Cytochrome P450 2C19 (Homo sapiens, UniProt P33261); assay: Cytochrome panel assay with activity outcomes. Panel member name: p450-cyp2c19 Compounds with AC50 equal or less than 10 uM are considered active; assay type: functional
Sequence of Cytochrome P450 2C19 (P33261 whole entry): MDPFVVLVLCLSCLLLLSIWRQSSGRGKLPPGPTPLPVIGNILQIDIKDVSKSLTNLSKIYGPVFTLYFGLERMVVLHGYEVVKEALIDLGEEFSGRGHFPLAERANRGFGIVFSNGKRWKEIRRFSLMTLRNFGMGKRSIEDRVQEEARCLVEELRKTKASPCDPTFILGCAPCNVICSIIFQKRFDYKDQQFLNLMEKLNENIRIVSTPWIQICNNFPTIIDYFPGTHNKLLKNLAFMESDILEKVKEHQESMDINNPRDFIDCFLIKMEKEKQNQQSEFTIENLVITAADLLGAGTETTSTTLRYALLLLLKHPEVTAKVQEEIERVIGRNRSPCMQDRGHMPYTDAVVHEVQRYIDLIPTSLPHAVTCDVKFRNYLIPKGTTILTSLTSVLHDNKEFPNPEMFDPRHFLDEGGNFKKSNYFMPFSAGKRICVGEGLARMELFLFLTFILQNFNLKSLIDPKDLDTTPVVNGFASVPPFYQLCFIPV

Cytochrome P450 2D6 = Cytochrome P450 2D6 (Homo sapiens, UniProt P10635);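 also: CYP2D6 member of a cytochrome P450 panel assay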
Sequence of Cytochrome P450 2D6 (P10635 whole entry): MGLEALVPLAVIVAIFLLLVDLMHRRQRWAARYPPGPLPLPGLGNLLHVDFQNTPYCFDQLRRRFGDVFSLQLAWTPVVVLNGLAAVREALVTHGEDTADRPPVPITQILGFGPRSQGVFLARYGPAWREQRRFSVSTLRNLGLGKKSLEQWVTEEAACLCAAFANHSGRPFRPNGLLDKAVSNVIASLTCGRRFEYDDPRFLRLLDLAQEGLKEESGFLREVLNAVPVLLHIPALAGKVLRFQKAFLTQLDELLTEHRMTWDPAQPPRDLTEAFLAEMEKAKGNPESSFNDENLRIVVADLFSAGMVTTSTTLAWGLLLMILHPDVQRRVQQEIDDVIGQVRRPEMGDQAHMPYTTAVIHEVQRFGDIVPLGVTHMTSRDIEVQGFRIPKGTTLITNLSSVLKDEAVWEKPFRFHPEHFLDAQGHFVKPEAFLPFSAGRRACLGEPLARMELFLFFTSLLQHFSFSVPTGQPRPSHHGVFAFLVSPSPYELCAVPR

Cytochrome P450 3A4 = Cytochrome P450 3A4 (Homo sapiens, UniProt P08684);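 also: CYP3A4 tested as one member of a cytochrome P450 panel screen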

Sequence of Dual specificity protein kinase CLK1 (P49759 whole entry): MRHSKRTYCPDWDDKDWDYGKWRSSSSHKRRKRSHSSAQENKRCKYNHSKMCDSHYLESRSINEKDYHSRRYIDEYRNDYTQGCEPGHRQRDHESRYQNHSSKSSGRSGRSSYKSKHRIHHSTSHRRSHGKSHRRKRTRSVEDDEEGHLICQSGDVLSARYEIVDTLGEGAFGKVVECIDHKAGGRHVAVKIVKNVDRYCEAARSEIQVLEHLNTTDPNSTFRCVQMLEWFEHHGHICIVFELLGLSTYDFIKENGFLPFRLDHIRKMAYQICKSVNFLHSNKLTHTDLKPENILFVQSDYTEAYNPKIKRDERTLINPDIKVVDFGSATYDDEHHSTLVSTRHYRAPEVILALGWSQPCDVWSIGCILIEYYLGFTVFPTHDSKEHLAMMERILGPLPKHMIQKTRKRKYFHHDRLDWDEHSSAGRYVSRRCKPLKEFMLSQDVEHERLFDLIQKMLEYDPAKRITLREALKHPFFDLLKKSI

With `O=C(COc1ccccc1)Nc1cccc(-c2cn3cccnc3n2)c1` the AC50 [1] was 10.4 µM (active) and the AC50 [2] was 3.85 µM (active).
In the case of `COc1ccc(C(=O)N2CCC3(CCCN(C(=O)NC(C)C)C3)CC2)cc1`, the AC50 (Cytochrome P450 1A2) is reported as “inactive”.
In the case of `CCOc1cc(S(=O)(=O)NCc2ccncc2)ccc1Cl`, the IC50 (Jurkat) is reported as > 80 µM (inactive), the IC50 [3] is reported as > 80 µM (inactive) and the AC50 (INS1) is reported as 0.848 µM (active). For the same molecule, the AC50 [4] was < 0.26 µM (active), the AC50 [5] was 0.45 µM (active) and the AC50 [6] was < 0.26 µM (active). For the same molecule, the IC50 (Galanin receptor type 3) was 0.581 µM (active), the EC50 (cells) was > 29.9 µM (inactive) and the IC50 [7] was 2.29 µM (active).
For `CCn1c(=O)cc(SCC(=O)NCCCN2CCN(c3ccccc3F)CC2)c2ccccc21`, the EC50 [8] was > 79.4 µM (inactive), the EC50 [9] was > 79.4 µM (not active) and the EC50 [10] was > 79.4 µM (not active). The IC50 [11] was > 20 µM (inactive), the EC50 (Mu-type opioid receptor) was 92.6 µM (inactive) and the EC50 [12] was 0.0169 µM (active).
With `CC1CCCN(c2ccc([N+](=O)[O-])cc2C(=O)c2ccccc2)C1` (stereo not drawn) the EC50 (BJ [13]) was 1.27 µM (active), the EC50 (BJ [14]) was 1.32 µM (active) and the EC50 (BJ [15]) was 0.657 µM (inconclusive). The EC50 [16] was 1.29 µM (active), the IC50 (Jurkat) was 40.6 µM (inactive) and the IC50 [3] was > 80 µM (inactive). The EC50 (BJ [17]) was 0.314 µM (active) and the EC50 [18] was 12.2 µM (inactive).
In the case of `Cc1ccc(/N=c2\ssnc2Cl)nc1`, the IC50 [19] is reported as > 100 µM (inactive) and the IC50 (Phosphomannomutase 2) is reported as > 100 µM (inactive).
With `CCOc1cc(/C=N/n2cnnc2)cc(Br)c1O` the IC50 (Coagulation factor XII) was > 50 µM (inactive).
With `O=C([O-])Cc1ccccc1Nc1c(Cl)cccc1Cl.[Na+]` [DICLOFENAC SODIUM] the AC50 (Cytochrome P450 2C19) was “inactive”, the AC50 (Cytochrome P450 2D6) was “inactive” and the AC50 (Cytochrome P450 1A2) was “inactive”. The AC50 (Cytochrome P450 3A4) was “inconclusive”.
